The target of the assay is T1, Human Bcl-2 protein (Homo sapiens, UniProt P10415).
T1 construct: purchased Novus Biologicals
The assay can be described thus: Evaluation of binding of compound to Bcl-2 by surface plasmon resonance (SPR), Example 7. Here is the method: A surface plasmon resonance method was used in order to analyze the binding affinity of the compounds synthesized in Example 1 and Example 6, which are shown in Table AK-01, for Bcl-2. The apparatus used was Biacore T200 (GE Healthcare Japan Corp.), and the running buffer used was HBS (10 mM HEPES-NaOH and 150 mM NaCl, pH 7.4) supplemented with 1 mM DTT, 3 mM EDTA, 0.01% Tween 20 and 4% DMSO. Human Bcl-2 protein (Novus Biologicals) was biotinylated using EZ-Link Sulfo-NHS-LC-LC-biotin (Thermo Fisher scientific Inc.) and immobilized on the surface of Sensor Chip SA (GE Healthcare Japan Corp.). Then, compound solutions having a plurality of concentrations and the running buffer (blank) were added to the Bcl-2-immobilized surface to obtain the binding response of the compounds. Measurement was performed at 15° C.′.
The obtained sensorgrams were treated with Biacore T200 Evaluation Software, and the equilibrium dissociation constant KD of each compound for Bel-2 was determined as shown in the following Table AK-02 and Table AK-03.

Structures are written as SMILES.

T1 sequence (P10415 whole entry): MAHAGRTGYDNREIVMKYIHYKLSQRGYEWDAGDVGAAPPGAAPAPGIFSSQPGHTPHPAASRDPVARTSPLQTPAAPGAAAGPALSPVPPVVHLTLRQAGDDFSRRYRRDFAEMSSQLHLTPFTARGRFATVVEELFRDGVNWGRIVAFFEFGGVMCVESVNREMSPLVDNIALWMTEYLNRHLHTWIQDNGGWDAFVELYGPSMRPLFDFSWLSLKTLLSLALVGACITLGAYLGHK

Turning to `CCOc1cccc(-c2ccc(CN3CCN(c4ccc(C(=O)NS(=O)(=O)c5ccc(NCCSc6ccccc6)c([N+](=O)[O-])c5)cc4)CC3)cc2C)c1` [Compound B2Q047-01, 4-[4-[[4-(3-ethoxyphenyl)-3-methylphenyl]methyl]piperazin-1-yl]-N-[3-nitro-4-(2-phenylsulfanylethylamino)phenyl]sulfonylbenzamide], the “equilibrium dissociation constant compared with compound B2Q045-01” value (SPR, comparison with B2Q045-01) is recorded as “smaller equilibrium dissociation constant Kp”. Moreover, the “binding to Bcl-2 confirmed by SPR” value (compounds identified by AS-MS (Example 5), individually synthesized) was “confirmed to bind by SPR”.

These data come from patent US20250154686A1, “COMPOUND LIBRARY” (CHUGAI SEIYAKU KABUSHIKI KAISHA, priority 2021, published 2025).
